Experimental findings from patent US9005962B2, “Regionalised endoderm cells and uses thereof” (The University Court of the University of Edinburgh, priority 2007, dated 2015) are described below.

For series [1], the system named is Hex^RS ES cells. Briefly: ADE (H+C+) induction, two-step suspension (embryoid body) differentiation with serum day 0-2, flow cytometry for RS and Cxcr4. In kind it is cell-based, mouse. The protocol: ADE was induced under serum-containing conditions using a 2-step protocol. ES cells were seeded onto non-coated 10 cm petri dishes (sterilin) at a density of 5×10^3 cells/ml in Glasgow minimum essential medium (G-MEM; GIBCO-BRL) supplemented with 10% fetal calf serum (FCS), 0.1 mM nonessential amino acids (GIBCO-BRL), 1 mM sodium pyruvate, 2 mM glutamine and 0.1 mM 2-mercaptoethanol (2ME). Following 2 days of culture the resulting embryoid bodies (EBs) were harvested by centrifugation at 500 rpm for 1 min and replated on 10 cm non-coated petri dishes at the same density in N2B27 culture medium (StemCellSciences) supplemented with 20 ng/ml activin A (R&D). The media was replaced 2 days later and then every 3 days for the duration of the experiment. For some experiments 20 ng/ml EGF, 10 ng/ml Bmp4, 20 ng/ml activin A (R&D), 1×10^−5M all-trans retinoic acid (Sigma) and 3 μM CHIR99021 (a gift from StemCellSciences) were added to the culture at the indicated timepoints.
(§1) FITC-conjugated rat anti-CD184 (CXCR4), FITC-conjugated rat anti-CD31 and FITC conjugated rat anti-CD45 were purchased from BD Pharmingen. EBs generated under various different differentiation conditions were dissociated by treatment with cell dissociation buffer (PBS based) (GIBCO-BRL). Cells were washed in PBS supplemented with 10% FCS (FB) and resuspended at a maximum density of 5×10^6 cells/ml. For surface staining 200 μl of cells were plated in a V shape 96 well polystyrene plate (Sterilin) in PBS supplemented with 1% serum of the species in which the antibody was manufactured. The FITC-conjugated antibody or a FITC-conjugated isotype control was added at a 1:100 dilution. Cells were incubated in the dark for 20 mins, washed 3 times with FB and resuspended in FB supplemented with Topro3-iodide (Invitrogen) to exclude dead cell from the analysis. Cells were analysed using a FACS Calibur (BD Biosciences) or sorted using a MoFlo MLS flow cytometer (DakoCytomation).
Mouse ES cells were cultured according to Li et al., (1995). ADE was induced under serum-containing conditions using a 2-step protocol. ES cells were seeded onto non-coated 10 cm petri dishes (Sterilin) at a density of 5×10^3 cells/ml in GMEM supplemented as described in Li et al., (1995) except in the absence of LIF. EBs were harvested after two days by centrifugation and replated in N2B27 medium (StemCellSciences) supplemented with 20 ng/ml activin A (R&D) and 20 ng/ml EGF (R&D). This media was replaced again two days later. 10 ng/ml BMP4, 20 ng/ml activin A (R&D) and 1×10^−5M all-trans retinoic acid (Sigma) were added where indicated.
(§2) FITC-conjugated rat anti-CD184 (Cxcr4), FITC-conjugated rat anti-CD31 and FITC conjugated rat anti-CD45 were purchased from BD Pharmingen. Cells were stained with Topro3-iodide (Invitrogen) to exclude dead cells from the analysis. Cells were analysed using a FACS Calibur (BD Biosciences) or sorted using a MoFlo MLS flow cytometer (DakoCytomation).

Series [2] concerns Hex^RS ES cells. Put plainly: ADE (H+C+) induction, serum-free suspension (aggregation) culture, flow cytometry. The class given is cell-based. The protocol: For ADE induction under serum-free conditions in suspension culture, ES cells were seeded onto non-coated 10 cm Petri dishes at 5×10^3 cells/ml in N2B27 culture medium supplemented with 10 ng/ml Bmp4 and 20 ng/ml activin A. Following 2 days of culture the resulting EBs were harvested as above and replated on non-coated Petri dishes at the same density in SF03 culture medium (ref Tada 2005) supplemented with 20 ng/ml activin A and 20 ng/ml EGF. The media was replaced 2 days later and then every 3 days for the duration of the experiment. For some experiments 10 ng/ml Fgf4 (R&D), 10 ng/ml Bmp4, 20 ng/ml Activin A, 1×10^−5M all-trans retinoic acid, 100 ng/ml PD173074 (Sigma), 20 ng/ml EGF and 3 μM CHIR99021 were added to the culture at the indicated timepoints.
as §1, with “(DakoCytomation). […]” for “(DakoCytomation).”
FITC-conjugated rat anti-CD184 (Cxcr4), FITC-conjugated rat anti-CD31 and FITC conjugated rat anti-CD45 were purchased from BD Pharmingen. […] Cells were analysed using a FACS Calibur (BD Biosciences) or sorted using a MoFlo MLS flow cytometer (DakoCytomation).
(In general: A flow cytometer gives signals particle by particle.)

The test system of series [3] is Hex^RS ES cells. Briefly: ADE (H+C+) induction, serum-free adherent monolayer culture, flow cytometry, RT-PCR and immunostaining. In kind it is cell-based. The conditions noted are these: for ADE differentiation / ability to promote ADE formation: FIG. 25; for ADE differentiation: added to cultures for days 3-4 or days 3-7, PD173074 100 ng/ml, SU5402 25 μM; for ability to promote ADE formation: monolayer, FGFs at 10 ng/ml. The protocol: For ADE induction under serum-free conditions in adherent monolayer culture, ES cells were seeded onto gelatin coated 3 cm 6 well dishes (Iwaki) at a density of 1×10^4 cells/ml in N2B27 medium (StemCellSciences) supplemented with 10 ng/ml Bmp4, 20 ng/ml activin A and 10 ng/ml Fgf4. Following 2 days of culture the media was replaced with SF03 culture medium (Tada 2005) supplemented with 20 ng/ml activin A, 10 ng/ml Fgf4 and 20 ng/ml EGF. The media was replaced 2 days later and then every 3 days for the duration of the experiment. For some experiments 1×10^−5M all-trans retinoic acid, 100 ng/ml PD173074 and 3 μM CHIR99021 were added to the culture at the indicated timepoints.
as §1
Total RNA was prepared from a minimum of 1×10^4 cells from sorted cell fractions, EBs, monolayer differentiated cells or ES cells using Trizol reagent (Invitrogen). 1 μg of RNA was used as a template for cDNA synthesis using Superscript III (Invitrogen). Real-time RT-PCR was performed using a LightCycler 480 (Roche) and LightCycler 480 SYBR Green 1 Master (Roche). The following cycling conditions were used: denaturation: 95° C. 5 sec, amplification: 95° C. 5 sec, 58° C. 10 sec, 72° C. 20 sec (45 cycles), 81° C. 1 sec, melt: 95° C. 1 sec, 65° C. 10 sec, 95° C. −ramp 5 C per sec continuous, cool: […] 10 sec. Standard curves were generated from plasmid. Samples were normalized to β-actin or TATA-box binding protein (TBP) expression levels.
Sorted cells were seeded onto gelatin coated 24 well dishes (Iwaki). Adherence of cells to the substrate was enhanced by centrifugation at 1200 rpm for 3 mins. Sorted cells, monolayer differentiated cells and ES cells were washed in PBS, fixed in 4% paraformaldehyde for 10 mins and permeabilised by washing in PBS supplemented with 0.1% Triton X (PBST). Cells were treated with a blocking reagent (3% serum of same species as secondary antibody, 1% BSA in PBST) for 15 min before incubation with the primary antibody at 4° C. overnight. The cells were washed with PBST and incubated with the appropriate fluorescence-tagged secondary antibody for 2 hr at room temperature. The cells were washed with PBST and DAPI added during the final wash. The following primary antibodies were used, all are anti-mouse: anti-Oct3/4, anti-HNF-3β (Foxa2), anti-HNF-4α (Santa Cruz), anti-Cer11 (R&D), anti-E-cadherin (Takara Bio Inc) anti-alpha fetoprotein (NeoMarkers), anti-albumin (Bethyl laboratories inc). Anti-Pdx1 was a gift from P. Serup. […]
as §2

[4] abbreviates: FGF signalling blocked for days 3-7.
Where [5] appears, read: exogenous FGF4, defined monolayer culture (FIG. 22C, D).

In the case of `Cc1c[nH]c(-c2cnc(NCCNc3ccc(C#N)cn3)nc2-c2ccc(Cl)cc2Cl)n1` [CHIR99021], the “induction of the H+C+ cell population” value in the series on Hex^RS ES cells [1] (addition at day 0-2, in the presence of serum) was “completely blocked”. In addition, the “total number of surviving cells at the end of the 7 day differentiation” value in the series with Hex^RS ES cells [2] (added during the first two days, serum-free, aggregation and monolayer (Table 7)) is reported as “significantly increased”. For the same molecule, the “total number of H+C+ cells produced” value in the series on Hex^RS ES cells [2] (serum-free differentiation (Table 7)) was “no or only very minor effects”.
As to `CCN(CC)CCCCNc1ncc2cc(-c3cc(OC)cc(OC)c3)c(NC(=O)NC(C)(C)C)nc2n1` [PD173074, reference compound], in the series on Hex^RS ES cells [3] (setting [4]), the “H+C+ and C+ populations” value is listed as “complete loss”; the “cell survival / viability” value was “dramatically compromised”. In the series with Hex^RS ES cells [3], the ADE differentiation entry is “inhibit ADE differentiation”. For the same molecule, in the series with Hex^RS ES cells [3] (inhibitor present for the entire protocol), the “generation of C+ and H+C+ populations” value is “unable to generate either population”. The “number of C+ and H+C+ cells” value in the series on Hex^RS ES cells [3] (inhibitor present for the first two days of differentiation, then removed) is reported as “reduced number”.
For the molecule `Cc1c[nH]c(/C=C2\C(=O)Nc3ccccc32)c1CCC(=O)O` [SU5402, reference compound], the ADE differentiation result in the series on Hex^RS ES cells [3] is given as “inhibit ADE differentiation”.
On to `CC1=C(/C=C/C(C)=C/C=C/C(C)=C/C(=O)O)C(C)(C)CCC1` [retinoic acid, all-trans retinoic acid, reference compound], for which, in the series with Hex^RS ES cells [1] (added either at day 0 or day 3 (Table 2)), the “induction of the RS positive population” value is listed as “completely blocked”. In addition, the CXCR4 induction entry with Hex^RS ES cells [1] (added either at day 0 or day 3, data not shown) was “without effecting”.
“FGF2: fibroblast growth factor, 10 ng/ml”: the “ability to promote ADE formation” value in the series with Hex^RS ES cells [3] was “have the ability to promote ADE formation”.

B1: activin: secreted TGFβ ligand, activin A (R&D), 20 ng/ml (protein, UniProt P08476 311-426, looked up)
Inhibin beta A chain: GLECDGKVNICCKKQFFVSFKDIGWNDWIIAPSGYHANYCEGECPSHIAGTSGSSLSFHSTVINHYRMRGHSPFANLKSCCVPTKLRPMSMLYYDDGQNIIKKDIQNMIVEECGCS
modifications: Inhibin beta A chain
With B1, the “cells RS positive” value in the series with Hex^RS ES cells [1] (day 7, serum containing media 48 hr, then serum free media supplemented with activin 5 days) is 6.8-8.6%.

B2: FGF5: fibroblast growth factor, 10 ng/ml (protein, UniProt P12034 21-268, looked up)
Fibroblast growth factor 5: HGEKRLAPKGQPGPAATDRNPRGSSSRQSSSSAMSSSSASSSPAASLGSQGSGLEQSSFQWSPSGRRTGSLYCRVGIGFHLQIYPDGKVNGSHEANMLSVLEIFAVSQGIVGIRGVFSNKFLAMSKKGKLHASAKFTDDCKFRERFQENSYNTYASAIHRTEKTGREWYVALNKRGKAKRGCSPRVKPQHISTHFLPRFKQSEQPELSFTVTVPEKKKPPSPIKPKIPLSAPRKNTNSVKYRLKFRFG
Take B2: the “ability to promote ADE formation” value in the series on Hex^RS ES cells [3] is “not”.

B3: FGF4: fibroblast growth factor, 10 ng/ml (R&D) (protein, UniProt P08620 31-206, looked up)
Fibroblast growth factor 4: APTAPNGTLEAELERRWESLVALSLARLPVAAQPKEAAVQSGAGDYLLGIKRLRRLYCNVGIGFHLQALPDGRIGGAHADTRDSLLELSPVERGVVSIFGVASRFFVAMSSKGKLYGSPFFTDECTFKEILLPNNYNAYESYKYPGMFIALSKNGKTKKGNRVSPTMKVTHFLPRL
Regarding B3, in the series with Hex^RS ES cells [3] (FIG. 22E, FGF4 added solely during the second phase of differentiation), the “H+C+ ADE” value was “up to 20%”. Besides, the “ability to promote ADE formation” value with Hex^RS ES cells [3] is on record as “have the ability to promote ADE formation”. Also, the “number of CXCR4 expressing cells” value in the series with Hex^RS ES cells [3] (addition of Fgf4, monolayer) is on record as “did not increase”. Further, in the series with Hex^RS ES cells [3] (setting [5]), the “anterior markers Cer1 and Gsc” value is on record as “induction”; the “expression of Foxa2 and Sox17” value is reported as “increased”. In the series on Hex^RS ES cells [3] (exogenous FGF4, defined monolayer culture (FIG. 22D)), the “mesodermal and primitive streak gene expression” value is given as “suppressing”. In the series with Hex^RS ES cells [3] (monolayer cultures, inclusion in the differentiation protocol), the “H+C+ cell number” value was “doubled”.

B4: FGF10: fibroblast growth factor, 10 ng/ml (protein, UniProt O15520 38-208, looked up)
Fibroblast growth factor 10: QALGQDMVSPEATNSSSSSFSSPSSAGRHVRSYNHLQGDVRWRKLFSFTKYFLKIEKNGKVSGTKKENCPYSILEITSVEIGVVAVKAINSNYYLAMNKKGKLYGSKEFNNDCKLKERIEENGYNTYASFNWQHNGRQMYVALNGKGAPRRGQKTRRKNTSAHFLPMVVHS
With B4, the “ability to promote ADE formation” value with Hex^RS ES cells [3] is “not”.
